{"source": "patent US20250230193A1", "about": "“CYCLIC COMPOUND HAVING SELECTIVE KRAS INHIBITORY EFFECT ON HRAS AND NRAS” (CHUGAI SEIYAKU KABUSHIKI KAISHA, priority 2022, published 2025)", "key": {"[1]": {"target": "GDP-bound NRAS wild-type protein (Homo sapiens, UniProt P01111)", "sequence (P01111 whole entry)": "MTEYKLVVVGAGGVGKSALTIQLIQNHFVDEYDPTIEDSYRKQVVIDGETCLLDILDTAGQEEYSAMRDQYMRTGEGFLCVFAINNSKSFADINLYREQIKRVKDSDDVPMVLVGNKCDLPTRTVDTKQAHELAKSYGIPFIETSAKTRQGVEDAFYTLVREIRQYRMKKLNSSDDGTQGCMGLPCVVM", "experiment": "Binding to NRAS by surface plasmon resonance (SPR), Single Cycle Kinetics"}, "[2]": {"target": "GDP-bound HRAS wild-type protein (Homo sapiens, UniProt P01112)", "sequence (P01112 whole entry)": "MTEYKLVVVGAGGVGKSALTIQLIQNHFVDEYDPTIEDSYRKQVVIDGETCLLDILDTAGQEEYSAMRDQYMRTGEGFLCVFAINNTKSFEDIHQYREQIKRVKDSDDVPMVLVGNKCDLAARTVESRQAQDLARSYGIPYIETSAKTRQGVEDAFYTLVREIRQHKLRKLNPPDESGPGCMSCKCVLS", "experiment": "Binding to HRAS by surface plasmon resonance (SPR), Single Cycle Kinetics"}, "[3]": {"settings": "KD ratio, GDP-bound NRAS wild-type vs GDP-bound KRAS wild-type, SPR"}, "[4]": {"settings": "KD ratio, GDP-bound HRAS wild-type vs GDP-bound KRAS wild-type, SPR"}}, "note": "Where a SMILES comes first, the peptide text is derived from it. Bridges are numbered along the chain shown (N, C = ends). [ ]: non-standard residue; d: D form. The star is where a group is joined. hPhe(3,5-F2-4-CF3) = N[C@@H](CCc1cc(F)c(C(F)(F)F)c(F)c1)C(=O)O; hPhe(3-Cl-4-CF3) = N[C@@H](CCc1ccc(C(F)(F)F)c(Cl)c1)C(=O)O; NPrPhe(4-CF3) = CCCN[C@@H](Cc1ccc(C(F)(F)F)cc1)C(=O)O; NMeGly(cPent) = CN[C@H](C(=O)O)C1CCCC1; Pro(4,4-F2) = O=C(O)[C@@H]1CC(F)(F)CN1; αMeI = CC[C@H](C)[C@](C)(N)C(=O)O; NMeD = CN[C@@H](CC(=O)O)C(=O)O; NMeL = CN[C@@H](CC(C)C)C(=O)O; Morpholide = C1CN(*)CCO1; Ac4c = NC1(C(=O)O)CCC1; NEtG = CCNCC(=O)O; Sar = CNCC(=O)O", "data": [{"smiles": "CCCN1C(=O)CN(C)C(=O)CN(CC)C(=O)[C@H]([C@@H](C)CC)NC(=O)[C@H](CC(C)C)N(C)C(=O)C[C@@H](C(=O)N2CCOCC2)NC(=O)[C@H](C2CCCC2)N(C)C(=O)C2(CCC2)NC(=O)[C@@H]2CC(F)(F)CN2C(=O)[C@H](CCc2ccc(C(F)(F)F)c(Cl)c2)NC(=O)CN(C)C(=O)[C@@H]1Cc1ccc(C(F)(F)F)cc1", "note": "[PP0334] ([NMeL]I[NEtG][Sar][NPrPhe(4-CF3)][Sar][hPhe(3-Cl-4-CF3)][Pro(4,4-F2)][Ac4c][NMeGly(cPent)]D-Morpholide; lactam N-11)", "values": [{"measurement": "NRAS/KRAS (ratio of KD for GDP-bound NRAS wild-type to KD for KRAS)", "setting": "[1]; KD ratio NRAS/KRAS, SPR", "value": "B (a compound having 3 or more and less than 10 is denoted as B)"}, {"measurement": "HRAS/KRAS (ratio of KD for GDP-bound HRAS wild-type to KD for KRAS)", "setting": "[2]; KD ratio HRAS/KRAS, SPR", "value": "C (A compound having a KD ratio of 0.1 or more and less than 3 is denoted as C)"}]}, {"smiles": "CC[C@H](C)[C@@H]1NC(=O)[C@H](CC)N(C)C(=O)C[C@@H](C(=O)N2CCOCC2)N(C)C(=O)[C@H](C2CCCC2)N(C)C(=O)C2(CCCC2)NC(=O)[C@@H]2CCCN2C(=O)[C@H](CCc2cc(F)c(C(F)(F)F)c(F)c2)NC(=O)CN(C)C(=O)[C@H](Cc2ccc(C(F)(F)F)cc2)N2CCCCC[C@@H](C2=O)N(C)C(=O)CN(C)C1=O", "note": "[PP0488]", "values": [{"measurement": "NRAS/KRAS (ratio of KD value with respect to GDP-bound NRAS wild-type protein to KD value with respect to KRAS)", "setting": "[1]; KD ratio NRAS/KRAS, SPR", "value": "A (a compound having 10 or more and less than 20 is denoted as A)"}, {"measurement": "HRAS/KRAS (ratio of KD value with respect to GDP-bound HRAS wild-type protein to KD value with respect to KRAS)", "setting": "[2]; KD ratio HRAS/KRAS, SPR", "value": "B (a compound having 3 or more and less than 10 is denoted as B)"}]}, {"smiles": "CCO[C@@H]1C[C@H]2C(=O)NC3(CC(C)(C)C3)C(=O)N(C)[C@@H](CC(C)(C)C)C(=O)N(C)[C@H](C(=O)N(C)C)CC(=O)N(C)[C@@H](COC)C(=O)N[C@@H]([C@@H](C)CC)C(=O)N(C3CC3)CC(=O)N(C)[C@H]3C/C=C\\CCN(C3=O)[C@@H](Cc3ccc(C(F)(F)F)cc3)C(=O)N(C)CC(=O)N[C@@H](CCc3ccc(C(F)(F)F)c(OC)c3)C(=O)N2C1", "note": "[PP2748]", "values": [{"measurement": "NRAS/KRAS (ratio of KD value with respect to GDP-bound NRAS wild-type protein to KD value with respect to KRAS)", "setting": "[1]; KD ratio NRAS/KRAS, class symbols", "value": "A (a compound having 10 or more and less than 20 is denoted as A)"}, {"measurement": "HRAS/KRAS (ratio of KD value with respect to GDP-bound HRAS wild-type protein to KD value with respect to KRAS)", "setting": "[2]; KD ratio HRAS/KRAS, class symbols", "value": "A (a compound having 10 or more and less than 20 is denoted as A)"}]}, {"smiles": "CCO[C@@H]1C[C@H]2C(=O)NC3(CCC3)C(=O)N(C)[C@@H](C3CCCC3)C(=O)N(C)[C@H](C(=O)N3CCOCC3)CC(=O)N(C)[C@@H](Cc3ccsc3)C(=O)N[C@@H]([C@@H](C)CC)C(=O)N(C)CC(=O)N(C)[C@H]3CCCCCN(C3=O)[C@@H](Cc3ccc(F)cc3)C(=O)N(C)CC(=O)N[C@@H](CCc3cc(F)c(C(F)(F)F)c(F)c3)C(=O)N2C1", "note": "[PP1184]", "values": [{"measurement": "NRAS/KRAS (ratio of KD value with respect to NRAS to KD value with respect to KRAS)", "setting": "[1]; [3]", "value": "B (a compound having 3 or more and less than 10 is denoted as B)"}, {"measurement": "HRAS/KRAS (ratio of KD value with respect to HRAS to KD value with respect to KRAS)", "setting": "[2]; [4]", "value": "B (a compound having 3 or more and less than 10 is denoted as B)"}]}, {"smiles": "CCCOC[C@H]1C(=O)N[C@@H]([C@@H](C)CC)C(=O)N2CCC[C@H]2C(=O)N(C)[C@H]2C/C=C\\CCN(C2=O)[C@@H](CC2CCC(F)(F)CC2)C(=O)N(C)CC(=O)N[C@@H](CCc2ccc(C(F)(F)F)c(OC)c2)C(=O)N2C[C@H](OCC)C[C@H]2C(=O)N(C)C2(CCC2)C(=O)N(C)[C@@H](C2CCCC2)C(=O)N(C)[C@H](C(=O)N(C)C)CC(=O)N1C", "note": "[PP2357]", "values": [{"measurement": "NRAS/KRAS (ratio of KD value with respect to NRAS to KD value with respect to KRAS)", "setting": "[1]; SPR, GDP-bound NRAS wild-type vs GDP-bound KRAS wild-type", "value": "A (a compound having 10 or more and less than 20 is denoted as A)"}, {"measurement": "HRAS/KRAS (ratio of KD value with respect to HRAS to KD value with respect to KRAS)", "setting": "[2]; SPR, GDP-bound HRAS wild-type vs GDP-bound KRAS wild-type", "value": "B (a compound having 3 or more and less than 10 is denoted as B)"}]}, {"smiles": "CCO[C@@H]1C[C@H]2C(=O)NC3(CC(C)(C)C3)C(=O)N(C)[C@@H](C3CCCC3)C(=O)N(C)[C@H](C(=O)N(C)CC)CC(=O)N(C)[C@@H](COC)C(=O)N[C@@H]([C@@H](C)CC)C(=O)N(C)CC(=O)N(C)[C@H]3C/C=C\\CCN(C3=O)[C@@H](Cc3ccc(C(F)(F)F)cc3)C(=O)N(C)CC(=O)N[C@@H](CCc3cc(F)c(C(F)(F)F)c(F)c3)C(=O)N2C1", "note": "[PP1671]", "values": [{"measurement": "NRAS/KRAS (ratio of KD value for NRAS to KD value for KRAS)", "setting": "[1]; [3]", "value": "A (a compound having 10 or more and less than 20 is denoted as A)"}, {"measurement": "HRAS/KRAS (ratio of KD value for HRAS to KD value for KRAS)", "setting": "[2]; [4]", "value": "A (a compound having 10 or more and less than 20 is denoted as A)"}]}, {"smiles": "CC[C@H](C)[C@@H]1NC(=O)[C@H](CC(C)C)N(C)C(=O)C[C@@H](C(=O)N2CCOCC2)N(C)C(=O)[C@H](C2CCCC2)N(C)C(=O)C2(CCCC2)NC(=O)[C@@H]2CCCN2C(=O)[C@H](CCc2cc(F)c(C(F)(F)F)c(F)c2)NC(=O)CN(C)C(=O)[C@H](Cc2ccc(C(F)(F)F)cc2)N2CCCC[C@@H](C2=O)N(C)C(=O)CN(CC)C1=O", "note": "[PP0545]", "values": [{"measurement": "NRAS/KRAS (ratio of KD value with respect to GDP-bound NRAS wild-type protein to KD value with respect to KRAS)", "setting": "[1]; KD ratio NRAS/KRAS, SPR", "value": "B (a compound having 3 or more and less than 10 is denoted as B)"}, {"measurement": "HRAS/KRAS (ratio of KD value with respect to GDP-bound HRAS wild-type protein to KD value with respect to KRAS)", "setting": "[2]; KD ratio HRAS/KRAS, SPR", "value": "B (a compound having 3 or more and less than 10 is denoted as B)"}]}, {"smiles": "CCCN1C(=O)CN(C)C(=O)CN(C)C(=O)[C@H]([C@@H](C)CC)NC(=O)[C@H](CC(C)C)N(C)C(=O)C[C@@H](C(=O)N2CCOCC2)N(C)C(=O)[C@H](C2CCCC2)N(C)C(=O)[C@](C)([C@@H](C)CC)NC(=O)[C@@H]2CCCN2C(=O)[C@H](CCc2cc(F)c(C(F)(F)F)c(F)c2)NC(=O)CN(C)C(=O)[C@@H]1Cc1ccc(C(F)(F)F)cc1", "note": "[PP0757] ([NMeL]I[Sar][Sar][NPrPhe(4-CF3)][Sar][hPhe(3,5-F2-4-CF3)]P[αMeI][NMeGly(cPent)][NMeD]-Morpholide; lactam N-11)", "values": [{"measurement": "NRAS/KRAS (ratio of KD value with respect to GDP-bound NRAS wild-type protein to KD value with respect to KRAS)", "setting": "[1]; KD ratio NRAS/KRAS, SPR", "value": "B (a compound having 3 or more and less than 10 is denoted as B)"}, {"measurement": "HRAS/KRAS (ratio of KD value with respect to GDP-bound HRAS wild-type protein to KD value with respect to KRAS)", "setting": "[2]; KD ratio HRAS/KRAS, SPR", "value": "C (A compound having a KD ratio of 0.1 or more and less than 3 is denoted as C)"}]}]}
